Laboratory results taken from patent US20070275925A1, “ASTHMA DIAGNOSIS AND THERAPY” (REGENTS OF THE UNIVERSITY OF CALIFORNIA, priority 2006, published 2007).

Key:
serpinB2 protein = assay: ELISA for serpinB2 protein levels in bronchoalveolar lavage; type: in vivo, human; conditions: Post-fluticasone (follow-up bronchoscopy, 1 week)
Description: Periostin and serpin B2 have not previously been associated with asthma, and we examined their expression at the protein level. […] However, in asthmatics, serpinB2 levels increased in all subjects at the second bronchoscopy (Table 4s, supplementary appendix). The increase in serpinB2 at the second bronchoscopy likely reflects a pro-coagulation response to the minor bleeding that accompanied bronchial biopsy during the first bronchosocopy. ELISA for serpinB2 protein levels in bronchoalveolar lavage fluid was performed using a commercially available kit (Imubind PAI-2 ELISA, American Diagnostica Inc, Stamford Conn.) according to the manufacturer's directions.

Periostin = Periostin immunohistochemistry in bronchial biopsies with design-based stereology; type: in vivo, human; conditions: one week of treatment with fluticasone
Description: Periostin protein expression was confirmed by immunohistochemistry in bronchial biopsies from a subset of asthmatic and healthy control subjects. Periostin immunolocalized to the subepithelium in all subjects, and quantification confirmed increased expression in asthma (FIG. 3). The degree of immunostaining in asthmatics was not decreased by one week of treatment with fluticasone (FIG. 6, supplementary appendix). Paraffin-embedded sections were deparaffinized and re-hydrated to water. Next, all sections were incubated in 3% hydrogen peroxide/absolute methanol for 10 minutes to block endogenous peroxidase activity. […] Biopsies were formalin-fixed and paraffin-embedded and then analyzed using methods of tissue immunohistochemistry (described above) and design-based stereology.^6 First, the volume of immunohistochemical staining, the volume of submucosal tissue surveyed, and the surface area of the epithelial basal lamina surveyed were determined by point and intersection counting using an integrated microscope (Olympus; Albertslund, Denmark), video camera (JVC Digital Color, JVC A/S; Tatstrup, Denmark), automated microscope stage, and computer (Dell Optiplex GS270 PC running Computer-Assisted Stereology Toolbox [C.A.S.T.] […] Points overlying submucosal tissue that is immunostained and unstained were counted separately along with intersections of test lines with basal lamina. […]

CCC(=O)O[C@]1(C(=O)SCF)[C@H](C)C[C@H]2[C@@H]3C[C@H](F)C4=CC(=O)C=C[C@]4(C)[C@@]3(F)[C@@H](O)C[C@@]21C [fluticasone, fluticasone propionate]
SerpinB2 protein levels in bronchoalveolar lavage, Mean (serpinB2 protein): 0.91 ng/mL
Degree of periostin immunostaining in bronchial biopsies of asthmatics (Periostin): not decreased
